Molecules are shown by their SMILES.

One series deals with cardiac myocytes. The series can be described thus: Myocyte contractility (amplitude of systolic motion, beating frequency), phase contrast video motion detector. In kind it is cell-based, rat. The procedure:
In general, the amplitude of contraction (i.e., degree of positive inotropy) was measured in single, beating myocytes as the amplitude of systolic motion (ASM) using a phase contrast video motion detector system. The same detector system was used to measure toxicity, which is evidenced as a decrease in ASM, a change in the position of maximal relaxation (MR), and an increase in beating frequency.
(§1) Myocardial cells were isolated from ventrical fragments of the hearts of 1-day old Sprague-Dawley rats by serial trypsinizations in a Ca²⁺ and Mg²⁺-free Hanks Buffered Salt Solution (HBSS) as previously described (Yagev, S., et al., In Vitro, 20:893-898 (1984)). Trypsinized cells were decanted into HamF10 medium containing 20% serum and antibiotics and centrifuged at 1000 r.p.m. for 10 minutes. The cell pellet was resuspended in HamF10 medium containing fetal calf serum and 10% horse serum with 0.1% penicillin-streptomycin, and diluted to a concentration of 5 x 10⁵ cells/ml. For measurements of cytosolic free calcium concentration ([Ca²⁺]i), the cells were plated on rectangular glass coverslips (13 x 30 mm) and for measurements of cell contractility, plated on circular glass coverslips (12 mm), and both types of coverslips placed inside petri dishes. For measurements of ⁸⁶Rb⁺ uptake cells were plated in petri dishes (1 - 1.5 x 10⁶ cells/35mm dish). All cultures were incubated in humidified 5% CO₂, 95% air at 37°C.
Contractility, determined as amplitude of systolic cell motion (ASM), and beating frequency were measured in individual cells using a phase contrast microscope video motion detector system according to the method of Barry, et al. (Barry, W.H., et al., Circ. Res., 56:231-241 (1985)). A glass coverslip with attached cultured myocytes was placed in a chamber provided with inlet and exit ports for medium perfusion. The chamber was enclosed in a Lucite box at 37°C and placed on the stage of an inverted phase contrast microscope. The cells were covered with 1 ml medium containing HIF or ouabain. During continuous perfusion, medium bathing a cell in the center of a coverslip exchanged with a time constant of 15 seconds at a flow rate of 0.96 ml/minutes. Image was magnified using a 40x objective, and motion monitored by a low-light-level TV camera attached to the microscope and calibrated with 262 raster lines. […] The analog voltage output from the motion detector is filtered at low pass filter and calibrated to indicate actual um of motion, and the derivative is obtained electronically and recorded as velocity of motion in um/sec. […] The changes in contractility induced by ouabain or HIF were calculated in comparison with the contractility of the same cells before addition of ouabain or HIF.

Series [1] relates to neonatal rat cardiac myocytes. Put plainly: ⁸⁶Rb⁺ influx (Na⁺ pump activity) in cultured cardiac cells. In kind it is cell-based. The following applies: ouabain 5 mM, 20 min preincubation. The protocol:
Na⁺ pump activity was estimated in the cultured cardiac cells as the difference in ⁸⁶Rb⁺ uptake observed in the absence and presence of 5 mM ouabain, following the method of Panet et al (Panet, R., et al., J. Memb. Biol., 70:165-169 (1982)). To insure saturation binding, myocytes were preincubated for 20 minutes with HIF (2 unit/ml) or ouabain (5 mM) or both prior to addition of ⁸⁶Rb⁺ to run the 10 minute flux. Myocyte monolayers were washed with HEPES buffer solution (final concentrations, mM: NaCl 150, RbCl 5, HEPES-Tris 10 (pH7.0) , CaCl₂ 1, MgCl₂ 5, glucose 10), and the uptake initiated by covering over with 0.5 ml of same solution pre-warmed to 37°C and containing 2 uCi ⁸⁶RbCl. […] The cells were lysed with 0.6 ml of 0.1 N NaOH containing 0.1% (w/v) sodium dodecylsulfate, and the radioactivity counted in Instagel (Packard) scintillation medium.
The concentration dependence of HIF inhibition was determined by preincubating cells with HIF at 0.5 units/ml, 0.8 units/ml, 1 unit/ml, 2 units/ml and 4 units/ml concentration for 20 min. ⁸⁶RbCl (2 uCi/well) was then added to run the flux.

In series [2] the test system is cultured cardiac myocytes. The series can be described thus: Cytosolic free Ca²⁺ measured with fura-2 in cultured cardiac myocytes. The series is classed as cell-based, rat. The following applies: ouabain 10^-6 M, steady state, control 138±3. The protocol:
as §1, with “For measurements of ⁸⁶Rb⁺ uptake cells were plated in petri dishes (1 - 1.5 x 10⁶ cells/35mm dish). All cultures were incubated in humidified 5% CO₂, 95% air at 37°C.” left out
Changes in [Ca²⁺] i were detected using the fluorescent probe, fura-2 (Grynkiewicz, G., et al., J. Biol. Chem., 260:3440-3450 (1985)). […] The fluorescence was continuously recorded using a PTI DeltaScan 1 spectrofluorometer. […] Values of [Ca²⁺]i were calculated from the ratio R = F₃₄₀/F₃₈₀ [formula] […] Rmax and Rmin were determined in separate experiments using digitonin to equilibrate [Ca²⁺]i with ambient [Ca²⁺] […] Background autofluorescence was measured in unloaded cells and substracted from all measurements.

For series [3], the system named is rat abdominal aortic rings. The series can be described thus: Vascular tension in isolated aortic rings. More on the design: species or system Sprague-Dawley rats. The following applies: KCl 20 mM; above resting tension of 1.5 g. The protocol:
Experiments were conducted to determine the vasoconstrictive properties of HIF. The protocol for these experiments is described in greater detail in Example V. In general, Sprague-Dawley rats were anesthetized and the abdominal aorta surgically removed. 2 mm vascular rings were attached to a force transducer and bathed in buffer, and tension adjusted to 1.5 g. Tissue viability was documented and vasoconstrictive responses calibrated using known vasoconstrictors such as potassium chloride and norepinephrine. Blood vessels thus prepared were then tested with varing doses of HIF.
Sprague-Dawley rats weighing 250-350 grams were anesthetized with pentobarbital intraperitoneally, the abdominal aorta rapidly excised and dissected free of all loose connective tissue in cold Krebs-Henseleit bicarbonate buffer of the following composition, mM: NaCl, 118.3; KCl, 4.7; MgSo₄, 1.2; KH₂PO₄, 1.2; CaCl₂, 2.5; NaHCO₃, 25.0; Na-EDTA, 0.016; and glucose, 11.1. 2-3 mm (length) vascular rings were excised, attached to a force transducer and bathed in a water jacketed (37°C) organ chamber containing 5 ml of the above buffer gassed with 95% O₂ and 5% CO₂. […] force measurements were obtained with a Grass force displacement transducer attached to a Grass 79D polygraph DC amplifier, and recorded with a two-channel Kipp Zonen recorder. […]

In the case of `C[C@@H]1O[C@@H](O[C@H]2C[C@@H](O)[C@]3(CO)[C@H]4[C@H](O)C[C@]5(C)[C@@H](C6=CC(=O)OC6)CC[C@]5(O)[C@@H]4CC[C@]3(O)C2)[C@H](O)[C@H](O)[C@H]1O` [ouabain], the activation at 0.5 µM in the series with cardiac myocytes (Rattus norvegicus, ouabain 5x10^-7 M, read-out: ASM, % increase) is 41%. Besides, the inhibition at 0.5 µM in the series with cardiac myocytes (Rattus norvegicus, ouabain 5x10^-7 M, read-out: Rate, % decrease) stood at 23 ± 2%. For the same compound, the “toxicity on contracting myocytes (decrease in ASM, elevation in position of MR, increase in beating frequency)” value with cardiac myocytes (ouabain 1 uM) is given as “toxic range”. Also, the “ASM, % increase” value with cardiac myocytes (ouabain 5x10^-7 M, listed as Ou) was 41±3%. Besides, the inhibition at 5000 µM in series [1] (Rattus norvegicus, read-out: decrease of total ⁸⁶Rb⁺ uptake) is 74%. Besides, in series [1] (10 min flux, control 810 nmol/mg protein), the “total ⁸⁶Rb⁺ uptake” value was determined as 210 nmol/mg. The “[Ca²⁺]i” value in series [2] and in series [2] (listed as Ouabain) was 287 ± 15 nM throughout.
In the case of `[Cl-].[K+]` [KCl, potassium chloride], the “Change in Tension in Rat Aorta, % increase” value in series [3] came to 20%.

For the origin of these results see EP0433074B1, “Method for treating cardiac malfunction” (THE GENERAL HOSPITAL CORPORATION, priority 1989, dated 1991).
